Experimental data reported in patent US20170266204A1 (ARNO THERAPEUTICS, INC., priority 2016, published 2017).

Legend:
[1] = biological target: T1, progesterone receptor (PR) (Homo sapiens, UniProt P06401); assay: PRE-luciferase reporter assay in 293T and WMPY cells transfected with PR; type: cell-based; details: 100 nM
T1 construct: expressed in transfected cells; host or cells: 293T (human embryonic kidney cells) and WMPY (prostatic stromal cell line)
T1 sequence (P06401 1-933): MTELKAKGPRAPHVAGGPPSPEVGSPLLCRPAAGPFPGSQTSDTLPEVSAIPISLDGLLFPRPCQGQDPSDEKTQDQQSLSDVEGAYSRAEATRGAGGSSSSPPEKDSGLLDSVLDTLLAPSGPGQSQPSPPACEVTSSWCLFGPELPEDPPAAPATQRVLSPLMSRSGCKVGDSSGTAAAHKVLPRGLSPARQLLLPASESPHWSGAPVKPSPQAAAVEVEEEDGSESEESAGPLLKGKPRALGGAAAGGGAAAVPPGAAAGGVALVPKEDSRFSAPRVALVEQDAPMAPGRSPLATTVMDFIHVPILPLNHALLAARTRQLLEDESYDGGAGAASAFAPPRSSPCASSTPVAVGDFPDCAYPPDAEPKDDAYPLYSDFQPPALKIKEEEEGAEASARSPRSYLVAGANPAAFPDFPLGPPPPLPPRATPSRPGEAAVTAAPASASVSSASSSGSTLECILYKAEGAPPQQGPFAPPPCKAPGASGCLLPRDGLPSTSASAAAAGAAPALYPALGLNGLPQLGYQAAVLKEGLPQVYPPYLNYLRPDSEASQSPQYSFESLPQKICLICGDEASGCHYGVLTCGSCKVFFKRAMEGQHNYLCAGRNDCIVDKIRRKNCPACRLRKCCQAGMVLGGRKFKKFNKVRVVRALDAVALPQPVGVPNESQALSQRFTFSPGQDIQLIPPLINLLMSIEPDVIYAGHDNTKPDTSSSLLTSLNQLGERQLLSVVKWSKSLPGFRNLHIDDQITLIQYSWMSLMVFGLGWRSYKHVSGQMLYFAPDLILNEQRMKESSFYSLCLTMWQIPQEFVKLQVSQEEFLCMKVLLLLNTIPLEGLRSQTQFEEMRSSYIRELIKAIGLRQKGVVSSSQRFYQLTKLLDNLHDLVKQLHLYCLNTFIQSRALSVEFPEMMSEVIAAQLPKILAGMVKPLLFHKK
Procedure: 293T and WMPY cells were transfected with progesterone receptor (PR) and PRE-luciferase reporter. […] Experiments were repeated in triplicate. […] Because of the metabolic stability of M1 compared to ONA, a blood circulation of 100 nM M1 can be achieved after dosing M1 at 1 mg.

[2] = type: in vitro ADME, human
Excerpt: In: Pearson P, Wienkers L, editors. Handbook of drug metabolism. New York: Informa Healthcare; 2009. pp. 445-464.

[3] = Metabolite profile by LC-MS in pooled urine of chimeric mice with humanized liver after repeated oral onapristone; type: in vivo; details: onapristone 30 mg/kg/day, D11
Procedure: Metabolites were identified using liquid chromatography-mass spectrometry (LC-MS) and mass spectroscopy on pooled plasma, urine, and liver samples. Twenty-seven metabolites were identified in urine samples across dose and sampling time (e.g., 0-24 hours of dosing for each time point).
Mice with humanized livers were generated as described by Meuleman et al., Hepatology 2005, 41 (4):847-856. This humanized liver model is routinely used to assess the metabolism and toxicities of drugs. Kamimura H, Nakada N, Suzuki K, et al. Assessment of chimeric mice with humanized liver as a tool for predicting circulating human metabolites. Drug Metab Pharmacokinet 2010;25(3):223-235. Two weeks following birth, mice were transplanted with primary hepatocytes isolated from the liver of a donor (purchased from BD Genetest). All animals were housed and kept under standard animal protocols. Animals also were observed during the experiment for signs of illness, abnormal behavior and appearance, and any sign of toxicity, or mortality. Animals were treated orally by gavage with 0, 10, and 30 mg/kg of drug once a day up to 31 days. At the end of treatments, blood samples, urine, and liver were collected and processed for LC-MS/MS metabolite identification and profiling. […]

in vitro = details: for Vmax for metabolism: Table 1 Vmax 1; for P450 enzyme catalyzing the metabolism: microsomes
Procedure: Mohutsky M, Wrighton S, Ring B. In vitro metabolism: subcellular fractions. In: Pearson P, Wienkers L, editors. Handbook of drug metabolism. New York: Informa Healthcare; 2009. pp. 445-464. […] The incubation was conducted at various time points 0-60 min at 37° C. At the end of incubation, the reactions were quenched, processed, and analyzed by LC-MS/MS.

[4] = Concentration in blood circulation after dosing

| concentration that can be achieved in blood circulation ([4]; after dosing M1 at 1 mg, inferred from metabolic stability of M1) [nM] | concentration achieved in blood circulation ([4]; after dosing onapristone at 10 mg QD) [nM] | P450 enzyme catalyzing the metabolism (in vitro; both, human) | Km (in vitro; human, Km 1) [µM] | Km (in vitro; human, Km 2) [µM] | Km (in vitro; male, human, Km 1) [µM] | Km (in vitro; male, human, Km 2) [µM] | SMILES | inhibition of PR transcriptional activity [1] | number of metabolites formed in vitro [2] | metabolite detected by LC-MS in urine [3] | Vmax 1 (in vitro; female human liver microsomes) [pmol/min/mg] | Vmax 2 (in vitro; female human liver microsomes) [pmol/min/mg] | Vmax for metabolism (in vitro; females) | Vmax 1 (in vitro; male human liver microsomes) [pmol/min/mg] | Vmax 2 (in vitro; male human liver microsomes) [pmol/min/mg] | Vmax for metabolism (in vitro; males) | P450 enzyme catalyzing the metabolism (in vitro) |
| --- | --- | --- | --- | --- | --- | --- | --- | --- | --- | --- | --- | --- | --- | --- | --- | --- | --- |
| – | – | – | – | – | – | – | CN(C)c1ccc([C@H]2C[C@]3(C)[C@@H](CC[C@]3(O)CCCO)[C@@H]3CCC4=CC(=O)CCC4=C32)cc1 [onapristone, Onapristone, reference compound] | fully inhibit | nine | Ls | 1517 | 8715 | 1517 pmol/min/mg microsomal protein | 1292 | 7213 | 1292 pmol/min/mg microsomal protein | CYP3A |
| 100 | 10 | CYP3A and CYP2C | 0.75 | 175 | 0.96 | 129 | CNc1ccc([C@H]2C[C@]3(C)[C@@H](CC[C@]3(O)CCCO)[C@@H]3CCC4=CC(=O)CCC4=C32)cc1 [Metabolite M1, (8S, 11R,13R,14S,17S)-17-hydroxy-17-(3-hydroxypropyl)-13-methyl-11-(4-(methylamino)phenyl)-6,7,8,11,12,13,14,15,16,17-decahydro-1H-cyclopenta[a]phenanthren-3(2H)-one] | fully inhibit | – | – | 106 | 738 | 106 pmol/min/mg microsomal protein | 72 | 748 | 72 pmol/min/mg microsomal protein | – |
